Measured values published in patent publication US12599608B2, “Methods for treating cardiac valve disease” (The Regents of the University of California, priority 2018, dated 2026).
Where a name gives a salt, the structure may show the parent alone.

Key:
Type in all cases: cell-based, human
[1] = tested on: N1^+/− ECs; assay: Validation trials of screen candidates by targeted RNA-seq with the trained KNN algorithm; settings: duplicate or triplicate; one or more replicates classified as WT
Protocol: (§1) Starting on day 15 of differentiation, WT ECs were exposed to 10 μM DMSO (dimethyl sulfoxide) (n=80) while isogenic N1^+/− ECs were exposed to either 10 μM DMSO (n=80) or one of the small molecules from the LOPAC (1280 molecules) (Sigma LO1280) or Sheng Ding (315 molecules) chemical libraries. DMSO or small molecules were renewed with EC media (ScienCell #1001) changes on alternating days until the cells were ultimately collected for analysis on day 21. ECs were imaged using the IN Cell Analyzer on day 21 to evaluate morphology and cell death; wells with extensive cell death were eliminated from final analyses. For validation experiments, promising small molecules identified from the initial screen were applied to N1^+/− ECs in duplicate or triplicate along with controls of DMSO-exposed WT and N1^+/− ECs (n=4 each) using the same process as the initial screen described above.
(§2) ECs were lysed and RNA was isolated using the Qiagen RNeasy 96-well purification kit. RNA was diluted so that it was between the 10 pg-1 ng range accepted by the Cellular Research Precise targeted RNA-seq (RNA sequencing) system. Targeted RNA-seq libraries were prepared as per the Cellular Research Precise protocol (Rev 03092015), which includes both molecule and sample barcoding. The selected 119 target genes (see Table 1) included 3 low-expressing housekeeping genes for normalization (CHMP2A, C1orf43, REEP5) and either predicted central regulatory nodes or peripheral genes positioned within varied regions of the N1 network to permit identification of small molecules that affected central nodes as well as those that may have a synergistic effect in combination due to regulating different aspects of the network. Briefly, RNA was added to the Precise Encoding Plate containing indexed dT primer, dNTPs, and Spike-in mRNA controls and incubated at 65° C. for 3 minutes followed by cooling on ice. A master-mix of RT enzyme, RNase inhibitor, and buffer was then added to the samples, and they were incubated at 42° C. for 30 minutes followed by 80° C. for 5 minutes. Each plate of samples was combined into a single 2 ml tube and purified with AMPureXP beads. N1 PCR master-mix was added and samples were incubated for 94° C. for 2 minutes, followed by 15 cycles of 94° C. for 30 seconds, 55° C. for 3 minutes, and 68° C. for 1 minute, followed by 68° C. for 7 minutes. Samples were purified with AMPureXP beads and N2 PCR master-mix was added. Samples were incubated with the same thermal cycler program as above for 12 cycles. These final libraries were then purified with AMPureXP beads and analyzed for quality and concentration by Agilent Bioanalyzer and Illumina Library Quantification Kit (KAPA Biosystems), respectively. Libraries were normalized to equivalent concentration and pooled for paired-end 100 bp sequencing on an Illumina HiSeq 2500 instrument.
Sequencing data was analyzed using Cellular Research Precise Analysis Pipeline on the SevenBridges platform, which included analyzing sequencing quality with FASTQC, trimming adapters and filtering reads, demultiplexing based on sample barcodes, aligning reads with Bowtie 2, and determining the number of unique molecular indices per gene. Network inference was based on mutual information of gene expression from all DMSO- and small molecule-exposed samples as described in Margolin et al., BMC Bioinformatics. 2006; 7 Suppl 1:S7. Network diagram was generated using NetworkX (Hagberg et al., Exploring Network Structure, Dynamics, and Function using NetworkX. SciPy. 2008) based on network connections inferred from the small molecule screen data as described above with colors based on whole transcriptome RNA-seq gene expression of isogenic N1^+/− compared to WT ECs.
Promising small molecules were identified using either K-nearest neighbor (KNN) or hierarchical clustering algorithms. […]

[2] = tested on: N1^+/− iPSC-derived ECs; assay: Network-based small molecule screen by targeted RNA-seq of 119 genes (KNN and hierarchical clustering); settings: for KNN classification of network gene expression of treated N1^+/− ECs: initial screen of 1595 small molecules, treatment day 15 to day 21 of differentiation, KNN k=2; for hierarchical clustering of transcriptional profile of treated N1-haploinsufficient ECs with WT ECs: initial screen, complete agglomeration method
Source text: TALEN-engineered isogenic human iPSCs that were either WT (wild-type) or N1^+/− were derived and characterized as detailed in Theodoris et al., Cell. 2015; 160:1072-1086. Isogenic iPSCs (induced pluripotent stem cells) were differentiated into ECs as previously described (Theodoris et al., 2015; White et al., Stem Cells. 2012; 31:92-103). On day 13 of the differentiation process, ECs were greater than 90% double-positive for CD31 (BD #558068) and CD144 (#FAB9381P) by FACS (fluorescence-activated cell sorting) analysis (FIGS. 9G-H). Small molecule experiments (described below) were conducted at day 15 of differentiation.
as §1, §2
Sequencing data was analyzed using Cellular Research Precise Analysis Pipeline on the SevenBridges platform, which included analyzing sequencing quality with FASTQC, trimming adapters and filtering reads, demultiplexing based on sample barcodes, aligning reads with Bowtie 2, and determining the number of unique molecular indices per gene. Network inference was based on mutual information of gene expression from all DMSO- and small molecule-exposed samples as described in Margolin et al., BMC Bioinformatics. […]

[3] = tested on: N1^+/− ECs; assay: Whole transcriptome RNA-seq of N1^+/− ECs treated with network-correcting molecules
Protocol: ECs were lysed and RNA was isolated using the Qiagen RNeasy Micro purification kit. RNA-seq libraries were constructed using the Clontech SMRTer Stranded RNA-seq Library Prep Kit for Illumina per kit protocol. Libraries were analyzed by Agilent Bioanalyzer, normalized to equivalent concentration, pooled, gel purified, and sequenced 75 bp paired-end on an Illumina NextSeq instrument with 10% PhiX.
Sequencing quality was assessed with FASTQC (located on the web by placing “www.” in front of “bioinformatics.babraham.ac.uk/projects/fastqc/”). Reads were aligned to the hg19 (Homo sapiens assembly February 2009) transcriptome and genome using the Spliced Transcripts Alignment to a Reference (STAR) Aligner (Dobin et al., Bioinformatics. 2012; 29:15-21) and differential expression was analyzed using Cuffdiff (Trapnell et al., Nat Biotechnol. 2012; 31:46-53). HOPACH was used for clustering with the correlation metric (van der Laan and Pollard; located on the web by placing “www.” in front of “bioconductor.org/packages/devel/bioc/manuals/hopach/man/hopach.pdf”. GO analyses were completed using GO-Elite and ToppGene (Chen et al., Nucleic Acids Research. 2009; 37:W305-W311; Zambon et al., Bioinformatics. 2012; 28:2209-2210). Network diagrams were generated using NetworkX (Hagberg et al., SciPy. 2008) based on network connections inferred from mRNA-seq gene expression of isogenic N1^+/− compared to WT ECs with colors based on whole transcriptome RNA-seq gene expression of DMSO- vs small molecule-treated WT and N1^+/− ECs.

SMILES | KNN classification of treated N1^+/− ECs in validation trials [1] | KNN classification of network gene expression of treated N1^+/− ECs [2] | hierarchical clustering of transcriptional profile of treated N1-haploinsufficient ECs with WT ECs [2] | other results
O[C@@](CCN1CCCCC1)(c1ccccc1)[C@@H]1CC2C=CC1C2 (mixture of isomers) [Biperiden_hydrochloride] | classified as WT | – | – | –
CCCCC[C@H](O)/C=C/[C@H]1[C@H](O)CC(=O)[C@@H]1CCCCCCC(=O)O [Alprostadil] | – | classified as WT | – | –
CC(/C=C/c1cccc(Oc2ccc(F)cc2)c1)N(O)C(N)=O (centres unmarked) [BWB70C] | – | – | cluster with WT ECs | –
NC(=O)c1cc(N2CC2)c([N+](=O)[O-])cc1[N+](=O)[O-] [CB_1954, 5-(1-aziridinyl)-2,4-dinitrobenzamide] | classified as WT | classified as WT | – | –
C=C1[C@@H](O)C2/C=C/C[C@H](C)CCCC(=O)/C=C/C(=O)O[C@]23CN[C@@H](Cc2ccccc2)[C@@H]3[C@@H]1C (some centres unmarked) [Cytochalasin] | classified as WT | classified as WT | – | effect on dysregulation of cell motility genes ([3]; FIG. 2A): worsened the dysregulation; repression of genes aberrantly activated in N1-haploinsufficient ECs ([3]; FIG. 2A): effective at downregulating arterial thrombosis and T cell signal genes; repressive effect on cadherin-11 mRNA expression ([3]; FIG. 9A): strongest repressive effect
CC(C)C[C@H](NC(=O)OCC1c2ccccc2-c2ccccc21)C(=O)O [Fmoc-leu, Fmoc-Leucine] | classified as WT | classified as WT | – | –
Cc1ccnc(NS(=O)(=O)c2ccc(NC(=O)Nc3ccc(S(=O)(=O)Nc4nccc(C)n4)cc3)cc2)n1 [GSK837149A] | classified as WT | classified as WT | – | restoration of transcription of genes repressed in N1-haploinsufficient ECs ([3]; FIG. 2A): restored transcription of a complementary group of genes involved in angiogenesis and cardiovascular development; restoration of the N1-dependent network as a whole ([3]; FIGS. 2E, 3A): restored more complementary genes to XCT790
OC1(c2ccc(Cl)cc2)CCN(Cc2c[nH]c3ccccc23)CC1 [L-741,626] | – | classified as WT | – | –
C=CCN1CC[C@]23c4c5ccc(O)c4O[C@H]2/C(=N/NC(=O)c2ccccc2)CC[C@@]3(O)[C@H]1C5 [Naloxone benzoylhydrazone] | – | classified as WT | – | –
CCn1cc(C(=O)O)c(=O)c2cc(F)c(N3CCNCC3)cc21 [Norfloxacin] | – | classified as WT | – | –
NCCCCN [Putrescine dihydrochloride, Butane-1,4-diamine] | classified as WT | – | – | –
CC(C)(C(=O)NCC(F)(F)C(F)(F)F)C(=O)N[C@@H]1C(=O)Nc2ccccc2-c2ccccc21 [RO-4929097] | classified as WT | classified as WT | – | –
CC(C)(C)NCC(O)c1ccccc1Cl (centres unmarked) [Tulobuterol_hydrochloride, tulobuterol hydrochloride] | – | classified as WT | – | –
OCc1ccc(-c2nn(Cc3ccccc3)c3ccccc23)o1 [YC-1] | – | classified as WT | – | –
C=CCc1ccccc1OCC(O)CNC(C)C (centres unmarked) [alprenolol] | – | – | cluster with WT ECs | –
CCCCc1oc2ccccc2c1C(=O)c1cc(I)c(OCCN(CC)CC)c(I)c1 [amiodarone] | – | – | cluster with WT ECs | –
C[N+](C)(C)CCOC(N)=O [carbachol] | – | – | cluster with WT ECs | –
Cc1ccc(N(CC2=NCCN2)c2cccc(O)c2)cc1 [phentolamine mesylate] | – | – | cluster with WT ECs | –
CN1C(C(=O)Nc2ccccn2)=C(O)c2ccccc2S1(=O)=O [piroxicam] | – | – | cluster with WT ECs | –
